How the values were obtained:
[1] = target: T1, Integrin alpha-5/beta-1 (Homo sapiens, UniProt P05556+P08648); assay: Binding affinity to integrin alpha5beta1; type: protein-complex assay
[2] = target: T1, Integrin alpha-5/beta-1; assay: Antagonist activity at integrin alpha5beta1 in human K562 cells assessed as inhibition of cell adhesion; type: functional, cell-based
[3] = target: Integrin alpha-V/beta-3 (Homo sapiens, UniProt P05106+P06756); assay: Antagonist activity at integrin alphaVbeta3 in human A375M cells assessed as cell adhesion to fibrinogen in presence of Mg2+; type: functional, cell-based
[4] = target: Fibronectin receptor (Integrin alpha-5/beta-1 and alpha-V/beta-3) (Homo sapiens, UniProt P05106+P05556+P06756+P08648); assay: Antagonist activity at integrin alphavbeta3alpha5beta1 in human A375M cells assessed as inhibition of cell adhesion to fibronectin in presence of Mg2+; type: functional, cell-based
[5] = target: T1, Integrin alpha-5/beta-1; assay: Antagonist activity at integrin alpha5beta1 in human A375M cells assessed as inhibition of cell adhesion in presence of Mg2+ and MK-0429; type: functional, cell-based
[6] = system: A375M; assay: Selectivity ratio of IC50 for integrin alphavbeta3alpha5beta1-mediated human A375M cells adhesion to fibronectin in absence of MK-0429 to IC50 for integrin alpha5beta1-mediated human A375M cells adhesion to fibronectin in presence of MK-0429; type: cell-based
[7] = target: T1, Integrin alpha-5/beta-1; assay: Antagonist activity at integrin alpha5beta1 in human K562 cells assessed as inhibition of cell adhesion in presence of human serum albumin; type: functional, cell-based
[8] = organism: Rattus norvegicus; assay: Free drug level in rat; type: ADME, organism-based; details: in vivo
[9] = organism: Homo sapiens; assay: Free drug level in human; type: ADME, organism-based; details: in vivo

T1 sequence (P05556 21-798 limits assumed): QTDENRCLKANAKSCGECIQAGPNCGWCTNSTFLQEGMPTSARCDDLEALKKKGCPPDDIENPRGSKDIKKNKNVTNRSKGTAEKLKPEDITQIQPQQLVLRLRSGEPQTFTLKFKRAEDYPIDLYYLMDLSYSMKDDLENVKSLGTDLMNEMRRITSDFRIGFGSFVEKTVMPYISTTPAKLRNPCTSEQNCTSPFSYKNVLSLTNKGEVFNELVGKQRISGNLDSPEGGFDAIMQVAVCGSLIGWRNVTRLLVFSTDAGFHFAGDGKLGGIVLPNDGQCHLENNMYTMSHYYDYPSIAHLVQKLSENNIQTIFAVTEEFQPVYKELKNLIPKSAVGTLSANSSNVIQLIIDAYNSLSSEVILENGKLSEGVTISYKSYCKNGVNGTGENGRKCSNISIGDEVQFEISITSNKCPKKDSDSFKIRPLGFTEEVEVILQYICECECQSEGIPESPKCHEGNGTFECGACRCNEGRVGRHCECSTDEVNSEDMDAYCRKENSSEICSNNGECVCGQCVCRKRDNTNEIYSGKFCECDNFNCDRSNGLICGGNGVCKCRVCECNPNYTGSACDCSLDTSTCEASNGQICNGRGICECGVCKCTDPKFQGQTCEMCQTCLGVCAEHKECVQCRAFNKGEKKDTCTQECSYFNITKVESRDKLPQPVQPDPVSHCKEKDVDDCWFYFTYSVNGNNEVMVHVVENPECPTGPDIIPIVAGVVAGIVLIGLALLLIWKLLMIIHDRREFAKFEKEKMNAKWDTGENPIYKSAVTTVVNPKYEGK
T1 sequence (P08648 42-894 limits assumed): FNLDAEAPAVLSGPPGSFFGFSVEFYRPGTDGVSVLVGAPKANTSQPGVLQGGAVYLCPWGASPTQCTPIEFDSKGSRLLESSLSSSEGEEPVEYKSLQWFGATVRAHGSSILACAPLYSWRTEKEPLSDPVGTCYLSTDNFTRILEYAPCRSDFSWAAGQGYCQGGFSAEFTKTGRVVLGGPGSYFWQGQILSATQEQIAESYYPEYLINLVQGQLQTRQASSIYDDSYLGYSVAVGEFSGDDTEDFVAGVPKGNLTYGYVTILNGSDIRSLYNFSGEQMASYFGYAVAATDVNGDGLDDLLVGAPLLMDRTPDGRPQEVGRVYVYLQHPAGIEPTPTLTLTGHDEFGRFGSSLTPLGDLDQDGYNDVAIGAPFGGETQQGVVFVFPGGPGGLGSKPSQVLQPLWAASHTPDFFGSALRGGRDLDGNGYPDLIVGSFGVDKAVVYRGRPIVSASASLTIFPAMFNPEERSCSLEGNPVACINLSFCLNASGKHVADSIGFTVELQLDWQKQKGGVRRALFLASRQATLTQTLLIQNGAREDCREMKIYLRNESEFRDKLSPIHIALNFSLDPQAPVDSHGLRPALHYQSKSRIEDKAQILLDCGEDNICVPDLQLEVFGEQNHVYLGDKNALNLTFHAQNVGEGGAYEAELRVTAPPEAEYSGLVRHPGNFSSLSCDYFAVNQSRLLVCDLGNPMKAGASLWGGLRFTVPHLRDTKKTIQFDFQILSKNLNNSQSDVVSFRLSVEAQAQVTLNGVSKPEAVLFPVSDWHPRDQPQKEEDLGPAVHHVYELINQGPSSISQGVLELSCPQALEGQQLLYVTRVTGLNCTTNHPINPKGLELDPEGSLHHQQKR
T1 sequence (P08648 895-1049 limits assumed): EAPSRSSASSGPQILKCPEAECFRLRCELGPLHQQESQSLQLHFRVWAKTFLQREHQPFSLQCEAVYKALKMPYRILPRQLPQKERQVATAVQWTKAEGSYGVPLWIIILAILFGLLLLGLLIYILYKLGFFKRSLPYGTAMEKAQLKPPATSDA
Integrin alpha-V/beta-3, sequence (P05106 27-788 limits assumed): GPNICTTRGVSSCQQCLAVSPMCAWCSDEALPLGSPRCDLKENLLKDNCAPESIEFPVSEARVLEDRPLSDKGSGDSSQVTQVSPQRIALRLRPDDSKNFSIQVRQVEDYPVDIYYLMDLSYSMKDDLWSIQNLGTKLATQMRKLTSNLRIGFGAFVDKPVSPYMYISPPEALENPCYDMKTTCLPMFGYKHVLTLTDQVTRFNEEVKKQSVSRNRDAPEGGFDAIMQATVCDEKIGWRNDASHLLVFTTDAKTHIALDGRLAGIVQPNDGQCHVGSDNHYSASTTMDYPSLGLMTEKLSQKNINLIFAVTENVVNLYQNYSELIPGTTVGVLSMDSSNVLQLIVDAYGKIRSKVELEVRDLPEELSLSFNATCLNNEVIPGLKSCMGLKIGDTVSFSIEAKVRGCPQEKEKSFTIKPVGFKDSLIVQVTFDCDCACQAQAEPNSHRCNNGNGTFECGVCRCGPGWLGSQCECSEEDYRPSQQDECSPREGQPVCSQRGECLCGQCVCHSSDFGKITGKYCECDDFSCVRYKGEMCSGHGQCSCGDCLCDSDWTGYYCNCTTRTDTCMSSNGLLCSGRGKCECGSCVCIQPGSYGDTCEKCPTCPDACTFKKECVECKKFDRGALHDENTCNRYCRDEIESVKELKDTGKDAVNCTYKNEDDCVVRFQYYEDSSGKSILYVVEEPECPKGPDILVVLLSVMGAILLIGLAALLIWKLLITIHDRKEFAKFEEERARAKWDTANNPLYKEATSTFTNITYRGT
Integrin alpha-V/beta-3, sequence (P06756 31-889 limits assumed): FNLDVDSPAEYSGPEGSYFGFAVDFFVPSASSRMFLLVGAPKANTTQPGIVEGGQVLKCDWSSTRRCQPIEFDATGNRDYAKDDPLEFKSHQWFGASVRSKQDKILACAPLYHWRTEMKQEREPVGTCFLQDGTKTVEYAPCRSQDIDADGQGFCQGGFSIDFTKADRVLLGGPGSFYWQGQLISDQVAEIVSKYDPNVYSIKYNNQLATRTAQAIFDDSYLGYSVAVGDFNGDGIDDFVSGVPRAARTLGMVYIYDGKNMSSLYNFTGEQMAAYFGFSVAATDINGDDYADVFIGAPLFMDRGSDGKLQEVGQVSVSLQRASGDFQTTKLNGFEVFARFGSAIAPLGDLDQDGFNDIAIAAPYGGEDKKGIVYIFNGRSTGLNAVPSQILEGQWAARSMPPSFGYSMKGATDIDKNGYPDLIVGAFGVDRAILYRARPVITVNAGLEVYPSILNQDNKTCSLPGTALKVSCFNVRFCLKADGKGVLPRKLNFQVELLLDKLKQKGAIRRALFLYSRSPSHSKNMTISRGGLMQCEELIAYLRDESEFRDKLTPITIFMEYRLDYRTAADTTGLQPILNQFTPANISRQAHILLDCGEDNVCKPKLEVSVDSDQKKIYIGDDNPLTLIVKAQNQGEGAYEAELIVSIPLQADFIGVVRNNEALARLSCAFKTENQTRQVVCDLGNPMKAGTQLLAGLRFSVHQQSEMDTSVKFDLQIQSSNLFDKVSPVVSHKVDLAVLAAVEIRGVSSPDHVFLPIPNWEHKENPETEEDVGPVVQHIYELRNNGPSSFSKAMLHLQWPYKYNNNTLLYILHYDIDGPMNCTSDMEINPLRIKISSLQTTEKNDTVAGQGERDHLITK
Integrin alpha-V/beta-3, sequence (P06756 891-1048 limits assumed): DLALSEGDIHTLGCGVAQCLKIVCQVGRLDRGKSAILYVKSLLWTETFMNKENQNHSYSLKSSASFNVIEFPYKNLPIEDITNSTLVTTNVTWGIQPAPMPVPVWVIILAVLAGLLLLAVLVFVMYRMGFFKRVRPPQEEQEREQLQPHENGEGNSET

IC50 [1] | IC50 [2] | IC50 [3] | IC50 [4] | IC50 [5] | IC50 [7] | Drug uptake(free) [8] | Drug uptake(free) [9] | SMILES | Ratio IC50 [6]
6 nM | 110 nM | 1200 nM | 1200 nM | 570 nM |  |  |  | CNc1cccc(CCOc2ccc(C[C@H](NC(=O)c3c(Cl)cccc3Cl)C(=O)O)cn2)n1 | 2.1
4 nM | 24 nM | 340 nM | 340 nM | 200 nM | 5000 nM | 0.4% |  | CCc1cc(F)ccc1C(=O)N[C@@H](Cc1ccc(OCCc2cccc(NC)n2)cc1)C(=O)O | 1.7
8 nM | 46 nM |  |  |  |  |  |  | CNc1cccc(CCCc2ccc(C[C@H](NC(=O)c3c(Cl)cccc3Cl)C(=O)O)cc2)n1 | 
11 nM | 120 nM | 2600 nM | 2500 nM | 610 nM |  |  |  | O=C(N[C@@H](Cc1ccc(OCCCNc2ccccn2)cc1)C(=O)O)c1c(Cl)cccc1Cl | 4.2
 | 39 nM | 830 nM | 830 nM | 480 nM | 7500 nM | 0.9% | 0.25% | CNc1cccc(CCOc2ccc(C[C@H](NC(=O)C3(C)CCCCC3)C(=O)O)cc2)n1 | 1.8
< 1 nM | < 4 nM | 130 nM | 130 nM | 52 nM | 55 nM | 3.3% | 2.4% | CNc1cccc(CCOc2ccc(C[C@H](NC(=O)c3c(Cl)cncc3Cl)C(=O)O)cc2)n1 | 2.6
130 nM | 820 nM | 8300 nM | 8300 nM | 6500 nM | > 100000 nM |  |  | CNc1cccc(CCOc2ccc(C[C@H](NC(=O)c3ccc(F)cc3OC)C(=O)O)cc2)n1 | 1.3
890 nM | 4000 nM |  |  |  |  |  |  | O=C(N[C@@H](Cc1ccc2oc(CCNc3ccccn3)cc2c1)C(=O)O)c1c(Cl)cccc1Cl | 
 | 20000 nM |  |  |  |  |  |  | O=C(N[C@@H](Cc1cccc(OCCCNc2ccccn2)c1)C(=O)O)c1c(Cl)cccc1Cl | 
 | 4600 nM | 0.3 nM | 810 nM | 2200 nM |  |  |  | COc1ccc([C@H](CC(=O)O)N2CCN(CCCc3ccc4c(n3)NCCC4)C2=O)cn1 | 0.4
9 nM | 36 nM | 510 nM | 510 nM | 470 nM | 24000 nM | 0.5% |  | CNc1cccc(CCOc2ccc(C[C@H](NC(=O)c3ccc(F)cc3C)C(=O)O)cc2)n1 | 1.1
110 nM | 510 nM |  |  |  |  |  |  | CNc1cccc(CCOc2csc(C[C@H](NC(=O)c3c(Cl)cccc3Cl)C(=O)O)c2)n1 | 
< 1 nM | 7 nM | 230 nM | 230 nM | 97 nM | 170 nM | 1.1% | 1% | CNc1cccc(CCOc2ccc(C[C@H](NC(=O)c3c(Cl)cccc3Cl)C(=O)O)cc2)n1 | 2.3
1 nM | < 23 nM | 400 nM | 400 nM | 90 nM | 420 nM | 2.2% |  | CNc1cccc(CCOc2ccc(C[C@H](NC(=O)c3c(C)cccc3C)C(=O)O)cc2)n1 | 4.5
3 nM | 42 nM | 520 nM | 540 nM | 240 nM | > 26000 nM | 0.5% | 0.4% | CNc1cccc(CCOc2ccc(C[C@H](NC(=O)c3ccccc3Cl)C(=O)O)cc2)n1 | 2.2
5 nM | 76 nM |  |  |  |  |  |  | CNc1cccc(CCCc2ccc(C[C@H](NC(=O)c3c(Cl)cccc3Cl)C(=O)O)cn2)n1 | 
3 nM | 81 nM | 600 nM | 640 nM | 180 nM |  |  |  | CNc1cccc(CCOc2ccc(C[C@H](NC(=O)c3c(Cl)cccc3Cl)C(=O)O)cc2C)n1 | 3.6

IC50 [1] | IC50 [2] | IC50 [3] | IC50 [4] | IC50 [5] | IC50 [7] | Drug uptake(free) [8] | Drug uptake(free) [9] | SMILES | Ratio IC50 [6]
< 1 nM | 19 nM | 280 nM | 280 nM | 160 nM | 1500 nM | 0.5% | 0.6% | CNc1cccc(CCOc2ccc(C[C@H](NC(=O)c3c(F)cccc3Cl)C(=O)O)cc2)n1 | 1.7
1900 nM | 83000 nM |  |  |  |  |  |  | O=C(N[C@@H](Cc1cccc(OCCCCNc2ccccn2)c1)C(=O)O)c1c(Cl)cccc1Cl | 
 | 71 nM | 960 nM | 960 nM | 420 nM | 29000 nM | 0.9% |  | CNc1cccc(CCOc2ccc(C[C@H](NC(=O)C3CCCCC3C)C(=O)O)cc2)n1 (stereo partly specified) | 2.3
2 nM | 33 nM | 440 nM | 440 nM | 210 nM | 11000 nM | 0.3% | 0.2% | CNc1cccc(CCOc2ccc(C[C@H](NC(=O)c3ccc(F)cc3Cl)C(=O)O)cc2)n1 | 2.1
2 nM | 47 nM | 290 nM | 330 nM | 76 nM |  |  |  | CNc1cccc(CCOc2ccc(C[C@H](NC(=O)c3c(Cl)cccc3Cl)C(=O)O)cc2F)n1 | 4.3
 | 52 nM | 2900 nM | 2900 nM | 2700 nM | 36000 nM | 0.2% | 0.1% | CNc1cccc(CCOc2ccc(C[C@H](NC(=O)c3sccc3Cl)C(=O)O)cc2)n1 | 1.1
5900 nM | > 290000 nM |  |  |  |  |  |  | O=C(N[C@@H](Cc1cccc(OCCNc2ccccn2)c1)C(=O)O)c1c(Cl)cccc1Cl | 
180 nM | 400 nM |  |  |  |  |  |  | CNc1cccc(CCCc2csc(C[C@H](NC(=O)c3c(Cl)cccc3Cl)C(=O)O)c2)n1 | 
49 nM | 430 nM | 6700 nM | 7400 nM | 5400 nM |  |  |  | CNc1cccc(CCOc2ccc(C[C@H](NC(=O)c3ccccc3)C(=O)O)cc2)n1 | 1.4
1 nM | 22 nM | 370 nM | 380 nM | 57 nM | 1500 nM | 0.5% |  | CNc1cccc(CCOc2ccc(C[C@H](NC(=O)c3c(C)cc(C)cc3C)C(=O)O)cc2)n1 | 6.7
9 nM | 110 nM |  |  |  |  |  |  | CNc1cccc(CCCc2ccc(C[C@H](NC(=O)c3c(Cl)cccc3Cl)C(=O)O)nc2)n1 | 
3 nM | 39 nM | 520 nM | 510 nM | 250 nM | 7700 nM | 0.4% |  | CNc1cccc(CCOc2ccc(C[C@H](NC(=O)c3ccc(F)cc3C3CC3)C(=O)O)cc2)n1 | 2
82 nM | 2500 nM |  |  |  |  |  |  | O=C(N[C@@H](Cc1ccc(OCCNc2ccccn2)cc1)C(=O)O)c1c(Cl)cccc1Cl | 
1 nM | 26 nM | 620 nM | 510 nM | 84 nM |  |  |  | CNc1cccc(CCOc2ccc(C[C@H](NC(=O)c3c(Cl)cccc3Cl)C(=O)O)nc2)n1 | 6.1
 |  | 790 nM | 800 nM | 180 nM |  |  |  | CNc1cccc(CCCc2ccc(C[C@H](NC(=O)c3c(Cl)cccc3Cl)C(=O)O)s2)n1 | 4.4
21 nM | 610 nM | 8800 nM | 8800 nM | 5800 nM |  |  |  | CNc1cccc(CCOc2c(C)cc(C[C@H](NC(=O)c3c(Cl)cccc3Cl)C(=O)O)cc2C)n1 | 1.5

SMILES | IC50 [1] | IC50 [2] | IC50 [3] | IC50 [4] | IC50 [5] | IC50 [7] | Drug uptake(free) [8] | Drug uptake(free) [9] | Ratio IC50 [6]
CNc1cccc(CCOc2ccc(C[C@H](NC(=O)c3c(C)noc3C)C(=O)O)cc2)n1 |  |  |  |  |  |  | 3.8% |  | 
